Data set [1] addresses T1, PTP-1B (Homo sapiens, UniProt P18031).
T1 construct: PTP-1B (purified, 1 mg/mL) as a 1:250 dilution
T1 sequence (P18031 1-321 limits assumed): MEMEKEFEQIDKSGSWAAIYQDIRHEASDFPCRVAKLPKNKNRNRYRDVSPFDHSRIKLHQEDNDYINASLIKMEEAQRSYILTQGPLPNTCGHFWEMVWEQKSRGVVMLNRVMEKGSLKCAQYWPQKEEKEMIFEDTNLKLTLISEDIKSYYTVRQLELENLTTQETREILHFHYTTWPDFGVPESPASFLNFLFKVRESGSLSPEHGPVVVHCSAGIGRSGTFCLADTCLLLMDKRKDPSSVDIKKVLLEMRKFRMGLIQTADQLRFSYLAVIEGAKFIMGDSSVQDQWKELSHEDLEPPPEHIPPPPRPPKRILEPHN
Description: pNPP tyrosine phosphatase inhibition assay, PTP-1B. Type of data set: biochemical. The conditions noted are these: pNPP assay, PTP-1B; read-out: Activity Class (IC50 ranges). The essentials:
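Test compounds were screened at two final levels, 31.3 and 10 µM, against 4 µg/mL purified PTP-1B. The substrate was 10 mM p-nitrophenyl phosphate, with incubation for 10 min at 30°C before a K2CO3 quench. Activity was taken from A405.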

Counter-ions that a name gives are not always drawn. A value given as a limit tells only on which side of the number the result lay.

Take `O=C(c1ccccc1)N(Cc1ccc(C(F)(F)P(=O)(O)O)cc1)Cc1ccc(C(F)(F)P(=O)(O)O)cc1` [Compound 11, {[4-({Benzoyl-[4-(difluoro-phosphono-methyl)-benzyl]-amino}-methyl)-phenyl]-difluoro-methyl}-phosphonic acid]: the melting point fell in the range of 87 to 89 °C. Further, in data set [1], the half-inhibitory concentration (IC50) is 2.5 to 25 µM.
Consider `O=C(O)c1ccc(CN(Cc2ccc(C(F)(F)P(=O)(O)O)c(Br)c2)S(=O)(=O)c2ccccc2)cc1` [Compound 31, 4-({Benzenesulfonyl-[3-bromo-4-(difluoro-phosphono-methyl)-benzyl]-amino}-methyl)-benzoic acid], for which the melting point fell in the range of 160 to 162 °C. For the same compound, the IC50 in data set [1] was in the range of 0.1 to 0.249 µM.
`O=C(OCc1ccccc1)N(Cc1ccc(C(F)(F)P(=O)(O)O)cc1)Cc1ccc(C(F)(F)P(=O)(O)O)cc1` [Compound 17, {[4-({Benzyloxycarbonyl-[4-(difluoro-phosphono-methyl)-benzyl]-amino}-methyl)-phenyl]-difluoro-methyl}-phosphonic acid] returned a melting point of 106 to 108 °C. Further, the half-inhibitory concentration (IC50) in data set [1] was in the range of 2.5 to 25 µM.
The corresponding values for `O=P(O)(O)C(F)(F)c1ccc(CN(Cc2ccc(C(F)(F)P(=O)(O)O)cc2)S(=O)(=O)c2ccccc2Cl)cc1` [Compound 5, {[4-({(2-Chloro-benzenesulfonyl)-[4-(difluoro-phosphono-methyl)-benzyl]-amino}-methyl)-phenyl]-difluoro-methyl}-phosphonic acid] are 170 to 172 °C and 0.1 to 0.249 µM.
The matching figures for `COc1ccccc1S(=O)(=O)N(Cc1ccc(NC(=O)C(=O)O)cc1)Cc1ccc(NC(=O)C(=O)O)cc1` [Compound 57, N-[4-({(2-Methoxy-benzenesulfonyl)-[4-(oxalyl-amino)-benzyl]-amino}-methyl)-phenyl]-oxalamic acid]: 187 to 189 °C (dec.) and above 25 µM.
The matching figures for `O=C(NCc1ccccc1)N(Cc1ccc(C(F)(F)P(=O)(O)O)cc1)Cc1ccc(C(F)(F)P(=O)(O)O)cc1` [Compound 13, [(4-{3-Benzyl-1-[4-(difluoro-phosphono-methyl)-benzyl]-ureidomethyl}-phenyl)-difluoro-methyl]-phosphonic acid]: 124 to 127 °C and above 25 µM.
`O=P(O)(O)C(F)(F)c1ccc(CN(Cc2ccc(C(F)(F)P(=O)(O)O)cc2)S(=O)(=O)CCc2ccccc2)cc1` [Compound 9, [(4-{[[4-(Difluoro-phosphono-methyl)-benzyl]-(2-phenyl-ethanesulfonyl)-amino]-methyl}-phenyl)-difluoro-methyl]-phosphonic acid]: the melting point fell in the range of 181 to 183 °C. Moreover, the IC50 in data set [1] is 0.25 to 0.499 µM.
The matching figures for `CN(Cc1ccc(C(F)(F)P(=O)(O)O)cc1)Cc1ccc(C(F)(F)P(=O)(O)O)cc1` [Compound 15, {[4-({[4-(Difluoro-phosphono-methyl)-benzyl]-methyl-amino}-methyl)-phenyl]-difluoro-methyl}-phosphonic acid]: 268 to 270 °C and above 25 µM.
The corresponding values for `O=P(O)(O)C(F)(F)c1ccc(CN(Cc2ccc(-c3ccccc3)cc2)Cc2ccc(C(F)(F)P(=O)(O)O)cc2)cc1` [Compound 20, {[4-({Biphenyl-4-ylmethyl-[4-(difluoro-phosphono-methyl)-benzyl]-amino}-methyl)-phenyl]-difluoro-methyl}-phosphonic acid] are 125 to 128 °C and 2.5 to 25 µM.
Regarding `CC(C)COC(=O)N(Cc1ccc(C(F)(F)P(=O)(O)O)cc1)Cc1ccc(C(F)(F)P(=O)(O)O)cc1` [Compound 61, {[4-({[4-(Difluoro-phosphono-methyl)-benzyl]-isobutoxycarbonyl-amino}-methyl)-phenyl]-difluoro-methyl}-phosphonic acid], the IC50 in data set [1] lay within 2.5 to 25 µM.
Consider `N#Cc1cccc(-c2ccc(CN(Cc3ccc(C(F)(F)P(=O)(O)O)c(Cl)c3)S(=O)(=O)c3ccc(F)cc3Cl)cc2)c1` [Compound 162, [(2-Chloro-4-{[(2-chloro-4-fluoro-benzenesulfonyl)-(3′-cyano-biphenyl-4-ylmethyl)-amino]-methyl}-phenyl)-difluoro-methyl]-phosphonic acid], for which, in data set [1], the IC50 was in the range of 0.1 to 0.249 µM.
Still for that read-out and setting: the value for “{[4-(difluorophosphonomethyl)-3-chlorophenyl]methyl}[(2-methoxyphenyl)sulfonyl](2-piperidylmethyl)amine [Compound 213]” was 2.5 to 25 µM.
The same measure, in the same setting: the value for `COc1ccccc1S(=O)(=O)N(Cc1ccc(C(F)(F)P(=O)(O)O)c(Cl)c1)Cc1ccccc1Oc1ccccc1` [Compound 173, [(2-Chloro-4-{[(2-methoxy-benzenesulfonyl)-(2-phenoxy-benzyl)-amino]-methyl}-phenyl)-difluoro-methyl]-phosphonic acid] was 0.1 to 0.249 µM; that for `CCNc1ccc(S(=O)(=O)C(F)(F)F)cc1NC(=O)c1ccc(C)c(S(=O)(=O)N2CCCCC2)c1` [Compound 106, N-(2-Ethylamino-5-trifluoromethanesulfonyl-phenyl)-4-methyl-3-(piperidine-1-sulfonyl)-benzamide] was above 25 µM.
Same read-out and setting: the value for `COc1ccccc1S(=O)(=O)N(Cc1ccc(-c2ccc(S(C)(=O)=O)cc2)cc1)Cc1ccc(C(F)(F)P(=O)(O)O)c(Cl)c1` [Compound 147, [(2-Chloro-4-{[(4′-methanesulfonyl-biphenyl-4-ylmethyl)-(2-methoxy-benzenesulfonyl)-amino]-methyl}-phenyl)-difluoro-methyl]-phosphonic acid] was 0.1 to 0.249 µM; that for `COc1ccc(S(=O)(=O)N(Cc2ccc(C(=O)C(=O)O)cc2)Cc2ccc(S(C)(=O)=O)cc2)c(OC)c1` [Compound 111, (4-{[(2,4-Dimethoxy-benzenesulfonyl)-(4-methanesulfonyl-benzyl)-amino]-methyl}-phenyl)-oxo-acetic acid] was above 25 µM; that for `O=S(=O)(c1ccccc1Cl)N(Cc1ccc(NS(=O)(=O)C(F)(F)F)cc1)Cc1ccc(Cl)c(Cl)c1` [Compound 87, 2-Chloro-N-(3,4-dichloro-benzyl)-N-(4-trifluoromethanesulfonylamino-benzyl)-benzenesulfonamide] was above 25 µM.
With `O=P(O)(O)C(F)(F)c1ccc(CN(Cc2ccc(C(F)(F)P(=O)(O)O)cc2)S(=O)(=O)c2cccc(-c3ccccc3)c2)cc1` [Compound 74, {[4-({(Biphenyl-3-sulfonyl)-[4-(difluoro-phosphono-methyl)-benzyl]-amino}-methyl)-phenyl]-difluoro-methyl}-phosphonic acid], the IC50 in data set [1] fell in the range of 0.25 to 0.499 µM.
Still for that read-out and setting: the value for “{[4-(difluorophosphonomethyl)-3-chlorophenyl]methyl}[(2 methoxyphenyl)sulfonyl]{[2-(3-methylthiophenyl)phenyl]methyl}amine [Compound 206]” was below 0.099 µM; that for `COc1ccccc1S(=O)(=O)N(Cc1ccc(-c2ccc(CO)c(C(=O)O)c2)cc1)Cc1ccc(C(F)(F)P(=O)(O)O)c(Cl)c1` [Compound 200, 5-{4-[({[4-(difluorophosphonomethyl)-3-chlorophenyl]methyl}[(2-methoxyphenyl)sulfonyl]amino)methyl]phenyl}-2-(hydroxymethyl)benzoic acid,trisodium salt] was 0.1 to 0.249 µM.
In the case of `COc1ccccc1S(=O)(=O)N(Cc1ccc(OCc2nnn[nH]2)cc1)Cc1ccc(OCc2nnn[nH]2)cc1` [Compound 138, 2-Methoxy-N,N-bis-[4-(1H-tetrazol-5-ylmethoxy)-benzyl]-benzenesulfonamide], the IC50 in data set [1] is above 25 µM.
Same read-out and setting: as for “{[4-(difluorophosphonomethyl)-3-chlorophenyl]methyl}(cycloheptylmethyl)[(2-methoxyphenyl)sulfonyl]amine [Compound 202]”, the figure is 0.1 to 0.249 µM.
Take `NC(=O)c1ccccc1S(=O)(=O)N(Cc1ccccc1)Cc1ccc(C(F)(F)P(=O)(O)O)c(Cl)c1` [Compound 192, [(4-{[Benzyl-(2-carbamoyl-benzenesulfonyl)-amino]-methyl}-2-chloro-phenyl)-difluoromethyl]-phosphonic acid]: in data set [1], the IC50 is 0.25 to 0.499 µM.
With `COc1ccccc1S(=O)(=O)N(Cc1ccc(-c2ccc(CC#N)cc2)cc1)Cc1ccc(C(F)(F)P(=O)(O)O)c(Cl)c1` [Compound 152, [(2-Chloro-4-{[(4′-cyanomethyl-biphenyl-4-ylmethyl)-(2-methoxy-benzenesulfonyl)-amino]-methyl}-phenyl)-difluoro-methyl]-phosphonic acid], the IC50 in data set [1] fell in the range of 0.1 to 0.249 µM.
Same read-out and setting: the value for `CCOc1cccc(-c2ccccc2CN(Cc2ccc(C(F)(F)P(=O)(O)O)c(Cl)c2)S(=O)(=O)c2ccccc2OC)c1` [Compound 217, [(2-Chloro-4-{[(3′-ethoxy-biphenyl-2-ylmethyl)-(2-methoxy-benzenesulfonyl)-amino]-methyl}-phenyl)-difluoro-methyl]-phosphonic acid] was below 0.099 µM; that for `COc1cccc(-c2ccccc2CN(Cc2ccc(C(F)(F)P(=O)(O)O)c(Cl)c2)S(=O)(=O)c2ccccc2OC)c1` [Compound 183, [(2-Chloro-4-{[(2-methoxy-benzenesulfonyl)-(3′-methoxy-biphenyl-2-ylmethyl)-amino]-methyl}-phenyl)-difluoro-methyl]-phosphonic acid] was below 0.099 µM.

As a reminder, the melting point is the temperature, or range, at which the solid turns liquid. One may read the IC50 as the midpoint of a concentration-inhibition curve.
